From article PMC10838953

Key:
Test in all cases: biochemical
Details in all cases: read-out: %Ctrl @ 2000nM
[1] = biological target: RSK1(Kin.Dom.2-C-terminal) (Homo sapiens, UniProt Q15418)
BRAF = BRAF (Homo sapiens, UniProt P15056)
DAPK2 = DAPK2 (Homo sapiens, UniProt Q9UIK4)
TXK = TXK (Homo sapiens, UniProt P42681)
CAMK2G = CAMK2G (Homo sapiens, UniProt Q13555)
MEK2 = MEK2 (Homo sapiens, UniProt P36507)
PIK3CA(H1047L) = PIK3CA(H1047L) (Homo sapiens, UniProt P42336, H1047L)
MST4 = MST4 (Homo sapiens, UniProt Q9P289)
KIT(D816V) = KIT(D816V) (Homo sapiens, UniProt P10721, D816V)
MTOR = MTOR (Homo sapiens, UniProt P42345)
MEK3 = MEK3 (Homo sapiens, UniProt P46734)
EGFR(L747-T751del,Sins) = EGFR(L747-T751del,Sins) (Homo sapiens, UniProt P00533, DEL747-750/T751S)
EGFR(L747-T751del,Sins), sequence (P00533 with tags, fused parts or gaps DEL747-750/T751S): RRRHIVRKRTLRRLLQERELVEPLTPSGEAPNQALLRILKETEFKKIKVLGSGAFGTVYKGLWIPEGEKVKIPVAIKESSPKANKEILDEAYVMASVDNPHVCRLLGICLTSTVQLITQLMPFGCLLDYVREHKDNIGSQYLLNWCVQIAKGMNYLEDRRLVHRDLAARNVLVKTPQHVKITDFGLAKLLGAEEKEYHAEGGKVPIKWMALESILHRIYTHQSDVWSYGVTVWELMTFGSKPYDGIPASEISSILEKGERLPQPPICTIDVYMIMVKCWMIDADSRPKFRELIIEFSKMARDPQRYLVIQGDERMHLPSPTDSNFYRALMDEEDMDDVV

NIK = NIK (Homo sapiens, UniProt Q99558)
RET(M918T) = RET(M918T) (Homo sapiens, UniProt P07949, M918T)
FGFR4 = FGFR4 (Homo sapiens, UniProt P22455)
[2] = biological target: JAK3(JH1domain-catalytic) (Homo sapiens, UniProt P52333)
FGFR2 = FGFR2 (Homo sapiens, UniProt P21802)
EPHA8 = EPHA8 (Homo sapiens, UniProt P29322)
EPHA8, sequence (P29322 28-1005): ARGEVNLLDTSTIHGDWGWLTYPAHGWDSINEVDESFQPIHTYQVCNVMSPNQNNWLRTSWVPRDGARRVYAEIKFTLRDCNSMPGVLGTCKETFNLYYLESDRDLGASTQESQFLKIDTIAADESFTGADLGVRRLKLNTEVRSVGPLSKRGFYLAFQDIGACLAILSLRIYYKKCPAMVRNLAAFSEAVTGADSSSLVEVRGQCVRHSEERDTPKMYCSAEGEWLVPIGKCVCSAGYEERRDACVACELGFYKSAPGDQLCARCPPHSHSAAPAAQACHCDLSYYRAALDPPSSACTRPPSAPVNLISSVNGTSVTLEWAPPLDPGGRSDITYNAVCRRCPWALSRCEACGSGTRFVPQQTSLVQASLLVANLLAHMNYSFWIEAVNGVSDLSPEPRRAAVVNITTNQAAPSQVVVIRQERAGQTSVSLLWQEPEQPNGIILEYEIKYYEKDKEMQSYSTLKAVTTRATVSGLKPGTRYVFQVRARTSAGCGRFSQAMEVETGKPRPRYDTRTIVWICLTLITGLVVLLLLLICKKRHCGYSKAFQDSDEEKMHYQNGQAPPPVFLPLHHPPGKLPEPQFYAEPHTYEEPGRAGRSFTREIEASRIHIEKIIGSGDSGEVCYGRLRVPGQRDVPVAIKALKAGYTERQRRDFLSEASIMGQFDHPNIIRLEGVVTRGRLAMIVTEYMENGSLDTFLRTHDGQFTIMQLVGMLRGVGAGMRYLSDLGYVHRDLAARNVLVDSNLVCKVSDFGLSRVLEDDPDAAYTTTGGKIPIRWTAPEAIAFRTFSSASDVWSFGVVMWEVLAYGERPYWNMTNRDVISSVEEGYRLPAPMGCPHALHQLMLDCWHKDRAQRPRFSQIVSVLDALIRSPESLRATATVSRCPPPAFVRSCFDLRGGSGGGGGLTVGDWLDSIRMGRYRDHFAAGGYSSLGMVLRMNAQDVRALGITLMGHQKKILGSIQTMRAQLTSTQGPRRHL

TRKB = TRKB (Homo sapiens, UniProt Q16620)
IRAK3 = IRAK3 (Homo sapiens, UniProt Q9Y616)
IRAK3, sequence (Q9Y616 whole entry): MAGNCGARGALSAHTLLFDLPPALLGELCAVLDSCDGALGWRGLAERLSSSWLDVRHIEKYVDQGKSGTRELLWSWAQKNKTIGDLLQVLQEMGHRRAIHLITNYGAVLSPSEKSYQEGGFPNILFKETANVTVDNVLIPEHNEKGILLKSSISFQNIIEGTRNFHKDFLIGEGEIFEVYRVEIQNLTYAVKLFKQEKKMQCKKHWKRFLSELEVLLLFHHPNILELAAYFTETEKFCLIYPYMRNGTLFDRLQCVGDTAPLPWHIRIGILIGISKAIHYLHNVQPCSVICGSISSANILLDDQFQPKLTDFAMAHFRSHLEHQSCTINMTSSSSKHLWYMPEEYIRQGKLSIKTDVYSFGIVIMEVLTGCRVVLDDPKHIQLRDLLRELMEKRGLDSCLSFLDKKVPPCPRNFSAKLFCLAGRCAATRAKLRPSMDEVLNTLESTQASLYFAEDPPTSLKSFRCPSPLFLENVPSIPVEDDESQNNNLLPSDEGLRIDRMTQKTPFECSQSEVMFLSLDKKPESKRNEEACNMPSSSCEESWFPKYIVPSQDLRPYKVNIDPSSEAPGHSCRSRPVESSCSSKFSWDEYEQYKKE

STK16 = STK16 (Homo sapiens, UniProt O75716)
PIP5K2C = PIP5K2C (Homo sapiens, UniProt Q8TBX8)
PRKCE = PRKCE (Homo sapiens, UniProt Q02156)
DLK = DLK (Homo sapiens, UniProt Q12852)
MET(Y1235D) = MET(Y1235D) (Homo sapiens, UniProt P08581, Y1235D)
PCTK1 = PCTK1 (Homo sapiens, UniProt Q00536)
GRK1 = GRK1 (Homo sapiens, UniProt Q15835)
ALK(L1196M) = ALK(L1196M) (Homo sapiens, UniProt Q9UM73, L1196M)
ALK(L1196M), sequence (Q9UM73 19-1620 L1196M): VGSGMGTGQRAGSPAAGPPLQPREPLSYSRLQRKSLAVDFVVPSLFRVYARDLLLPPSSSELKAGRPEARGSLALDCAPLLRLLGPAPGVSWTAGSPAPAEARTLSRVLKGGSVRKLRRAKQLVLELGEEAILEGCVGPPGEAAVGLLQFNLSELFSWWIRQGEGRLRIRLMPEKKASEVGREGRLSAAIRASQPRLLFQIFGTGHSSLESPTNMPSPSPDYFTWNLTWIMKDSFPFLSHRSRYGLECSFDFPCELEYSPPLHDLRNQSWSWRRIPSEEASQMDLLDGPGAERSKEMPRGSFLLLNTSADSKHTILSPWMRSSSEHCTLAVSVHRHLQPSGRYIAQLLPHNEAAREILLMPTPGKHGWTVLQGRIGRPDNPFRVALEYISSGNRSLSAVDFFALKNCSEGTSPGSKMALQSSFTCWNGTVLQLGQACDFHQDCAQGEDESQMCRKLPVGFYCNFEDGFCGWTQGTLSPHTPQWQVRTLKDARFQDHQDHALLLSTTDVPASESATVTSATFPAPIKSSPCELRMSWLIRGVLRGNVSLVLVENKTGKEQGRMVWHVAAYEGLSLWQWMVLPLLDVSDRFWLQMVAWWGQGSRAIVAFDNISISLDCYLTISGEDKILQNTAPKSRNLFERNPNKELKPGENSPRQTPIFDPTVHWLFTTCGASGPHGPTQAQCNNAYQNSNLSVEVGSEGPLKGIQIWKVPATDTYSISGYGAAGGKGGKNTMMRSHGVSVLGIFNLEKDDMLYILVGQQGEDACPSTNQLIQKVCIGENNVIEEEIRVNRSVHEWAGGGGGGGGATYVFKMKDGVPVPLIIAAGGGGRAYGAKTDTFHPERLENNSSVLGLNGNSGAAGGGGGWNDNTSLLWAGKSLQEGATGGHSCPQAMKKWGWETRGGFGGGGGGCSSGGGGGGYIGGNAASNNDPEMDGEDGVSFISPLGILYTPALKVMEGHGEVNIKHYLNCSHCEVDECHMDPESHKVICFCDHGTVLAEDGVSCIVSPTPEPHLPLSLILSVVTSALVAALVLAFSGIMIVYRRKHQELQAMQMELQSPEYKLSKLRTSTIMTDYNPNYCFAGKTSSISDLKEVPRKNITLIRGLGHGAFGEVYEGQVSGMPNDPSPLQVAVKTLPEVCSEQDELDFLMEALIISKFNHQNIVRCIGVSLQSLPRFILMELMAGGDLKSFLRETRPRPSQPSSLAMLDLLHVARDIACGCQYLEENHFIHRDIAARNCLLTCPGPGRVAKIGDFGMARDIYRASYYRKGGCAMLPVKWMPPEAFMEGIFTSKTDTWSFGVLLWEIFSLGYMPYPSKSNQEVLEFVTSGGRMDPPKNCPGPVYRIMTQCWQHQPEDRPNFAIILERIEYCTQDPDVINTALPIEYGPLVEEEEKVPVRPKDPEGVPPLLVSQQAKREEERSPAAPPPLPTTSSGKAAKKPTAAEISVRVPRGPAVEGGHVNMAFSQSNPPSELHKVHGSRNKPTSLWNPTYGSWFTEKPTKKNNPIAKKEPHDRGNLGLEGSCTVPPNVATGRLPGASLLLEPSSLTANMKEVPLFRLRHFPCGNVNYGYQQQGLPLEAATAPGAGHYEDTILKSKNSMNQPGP

KIT-autoinhibited = KIT-autoinhibited (Homo sapiens, UniProt P10721)
GRK3 = GRK3 (Homo sapiens, UniProt P35626)
YSK4 = YSK4 (Homo sapiens, UniProt Q56UN5)
PRKCH = PRKCH (Homo sapiens, UniProt P24723)
TRKA = TRKA (Homo sapiens, UniProt P04629)
PIKFYVE = PIKFYVE (Homo sapiens, UniProt Q9Y2I7)
DAPK3 = DAPK3 (Homo sapiens, UniProt O43293)
BMPR1B = BMPR1B (Homo sapiens, UniProt O00238)
PIK3CA = PIK3CA (Homo sapiens, UniProt P42336)
[3] = biological target: EGFR(L747-E749del, A750P) (Homo sapiens, UniProt P00533, A750P/DEL747-749)
ALK(C1156Y) = ALK(C1156Y) (Homo sapiens, UniProt Q9UM73, C1156Y)
ALK(C1156Y), sequence (Q9UM73 19-1620 C1156Y): as the sequence (Q9UM73 19-1620 L1196M) above, with C1138Y, M1178L counted along it

PRP4 = PRP4 (Homo sapiens, UniProt Q13523)
NEK7 = NEK7 (Homo sapiens, UniProt Q8TDX7)
NEK7, sequence (Q8TDX7 whole entry): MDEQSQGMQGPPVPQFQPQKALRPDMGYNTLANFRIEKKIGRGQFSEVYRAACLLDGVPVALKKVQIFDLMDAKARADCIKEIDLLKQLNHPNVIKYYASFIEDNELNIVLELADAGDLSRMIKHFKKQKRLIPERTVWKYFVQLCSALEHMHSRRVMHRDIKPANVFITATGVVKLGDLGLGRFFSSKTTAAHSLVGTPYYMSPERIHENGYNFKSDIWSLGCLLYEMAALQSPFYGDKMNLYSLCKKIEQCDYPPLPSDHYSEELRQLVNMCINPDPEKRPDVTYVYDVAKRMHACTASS

SRMS = SRMS (Homo sapiens, UniProt Q9H3Y6)

RSK1(Kin.Dom.2-C-terminal), sequence (Q15418 392-735 limits assumed): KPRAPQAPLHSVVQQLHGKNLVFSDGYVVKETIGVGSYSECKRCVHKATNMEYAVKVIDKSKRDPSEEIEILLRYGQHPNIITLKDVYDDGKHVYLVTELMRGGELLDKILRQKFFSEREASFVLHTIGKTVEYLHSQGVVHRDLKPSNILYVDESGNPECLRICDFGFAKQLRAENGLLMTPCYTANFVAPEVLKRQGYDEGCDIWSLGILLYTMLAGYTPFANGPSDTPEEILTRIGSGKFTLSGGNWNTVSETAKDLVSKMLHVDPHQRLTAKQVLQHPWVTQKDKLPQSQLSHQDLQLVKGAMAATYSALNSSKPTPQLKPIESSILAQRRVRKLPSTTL
CAMK2G, sequence (Q13555 whole entry): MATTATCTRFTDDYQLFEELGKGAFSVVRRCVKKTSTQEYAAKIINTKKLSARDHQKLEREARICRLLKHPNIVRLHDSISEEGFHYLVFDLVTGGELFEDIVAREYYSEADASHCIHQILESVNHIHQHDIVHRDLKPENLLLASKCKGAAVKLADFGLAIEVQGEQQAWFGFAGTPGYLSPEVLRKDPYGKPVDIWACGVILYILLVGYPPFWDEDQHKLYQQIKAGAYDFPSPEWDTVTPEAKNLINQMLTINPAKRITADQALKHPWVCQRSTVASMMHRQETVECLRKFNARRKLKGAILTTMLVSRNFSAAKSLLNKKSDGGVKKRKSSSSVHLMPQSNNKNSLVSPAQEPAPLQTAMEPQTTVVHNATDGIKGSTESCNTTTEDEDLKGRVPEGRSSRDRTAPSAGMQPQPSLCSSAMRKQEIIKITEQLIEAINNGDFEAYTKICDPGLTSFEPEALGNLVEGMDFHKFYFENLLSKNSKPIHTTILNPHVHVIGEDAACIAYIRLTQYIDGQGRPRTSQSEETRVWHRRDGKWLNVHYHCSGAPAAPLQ

CC(C)COC(=O)c1[nH]c2ccc(F)cc2c1-c1cn(CC2CCN(CCNS(=O)(=O)c3ccc(CC(C)C)cc3)CC2)nn1 [AB668, isobutyl 5-fluoro-3-(1-((1-(2-((4-isobutylphenyl)sulfonamido)ethyl)piperidin-4-yl)methyl)-1H-1,2,3-triazol-4-yl)-1H-indole-2-carboxylate]
remaining activity at 2 µM [1]: 100% | remaining activity at 2 µM (BRAF): 100% | remaining activity at 2 µM (DAPK2): 71% | remaining activity at 2 µM (TXK): 92% | remaining activity at 2 µM (CAMK2G): 78% | remaining activity at 2 µM (MEK2): 96% | remaining activity at 2 µM (PIK3CA(H1047L)): 98% | remaining activity at 2 µM (MST4): 92% | remaining activity at 2 µM (KIT(D816V)): 95% | remaining activity at 2 µM (MTOR): 92% | remaining activity at 2 µM (MEK3): 100% | remaining activity at 2 µM (EGFR(L747-T751del,Sins)): 86% | remaining activity at 2 µM (NIK): 72% | remaining activity at 2 µM (RET(M918T)): 94% | remaining activity at 2 µM (FGFR4): 82% | remaining activity at 2 µM [2]: 73% | remaining activity at 2 µM (FGFR2): 93% | remaining activity at 2 µM (EPHA8): 92% | remaining activity at 2 µM (TRKB): 87% | remaining activity at 2 µM (IRAK3): 86% | remaining activity at 2 µM (STK16): 82% | remaining activity at 2 µM (PIP5K2C): 81% | remaining activity at 2 µM (PRKCE): 98% | remaining activity at 2 µM (DLK): 83% | remaining activity at 2 µM (MET(Y1235D)): 74% | remaining activity at 2 µM (PCTK1): 94% | remaining activity at 2 µM (GRK1): 80% | remaining activity at 2 µM (ALK(L1196M)): 85% | remaining activity at 2 µM (KIT-autoinhibited): 96% | remaining activity at 2 µM (GRK3): 89% | remaining activity at 2 µM (YSK4): 100% | remaining activity at 2 µM (PRKCH): 92% | remaining activity at 2 µM (TRKA): 96% | remaining activity at 2 µM (PIKFYVE): 1.7% | remaining activity at 2 µM (DAPK3): 100% | remaining activity at 2 µM (BMPR1B): 100% | remaining activity at 2 µM (PIK3CA): 82% | remaining activity at 2 µM [3]: 90% | remaining activity at 2 µM (ALK(C1156Y)): 81% | remaining activity at 2 µM (PRP4): 95% | remaining activity at 2 µM (NEK7): 93% | remaining activity at 2 µM (SRMS): 93%
